Measured values as given in US20140295012A1, “LATENT HUMAN IMMUNODEFICIENCY VIRUS REACTIVATION” (priority 2011, published 2014).
*1 amine or outer side, *2 acyl side, *3 side chain or, on linkers, in order; H or OH if unused. Where a SMILES comes first, the peptide text is derived from it. Bridges are numbered along the chain shown (N, C = ends). Roman numbers before positions name the chains, in order. [ ]: non-standard residue; d: D form. Actinocin(9to1) = Cc1c2oc3c(C)ccc(C(=O)[*:1])c3nc-2c(C(=O)[*:2])c(N)c1=O; NMeV = CN[C@H](C(=O)O)C(C)C; Sar = CNCC(=O)O

B1: HRF: flagellin polypeptide from Massilia timonae (SEQ ID NO:10), used as bacterial culture supernatant (protein)
chain: MASVINTNVPSLNSQRNLSTSQAQLNTSIQRLSSGMRINSAKDDAAGLAISDRMNSQIKGMTQATRNANDGVSMAQTAEGALSSSGDILQRIRELAVQSSNSSNSASDRKALQTEVTQLSSELNRIANTTEFNGQKLMDGTLGTANFQVGANAGQLISMTGANFNTSVYGNNQIAGDAAKAAATTSAAATGAFTISGYLGTSAAINTTDADTAKTIAASINNVTGDTGVTATARTDSFLKSAGGAHTMSLASDNSGTGEAVDISFTVGDGGDTADDYAAAISAFNAQTAKTGVTAEYDAVEKGLKLTNSAGENISLTNKAGSADIDMDTYAADGALMASALTLEAGDVGVANGRVTMDSEKSFSVAEGTDTGFELADSSALKSVAKIDISDFEGAQEAIKVADAALSAVNSQRAEYGALQSRFESAISNLSSSTENLSASRSRIVDTDFAAETAKMTRGQILQQAGTSMLAQANSLPNGVLSLLRG

Key:
Type in all cases: cell-based
[1] = tested on: chronically actively infected T cell lines (JNLG#35 and JNLG#44); test: Active HIV-1 transcription in chronically actively infected T cell lines JNLG#35 and JNLG#44 (GFP MCF); conditions: 48 hours
Protocol: Changes in HIV-1 transcription levels were determined after 48 hours by measuring GFP mean channel fluorescence intensity (GFP MCF). GFP MCF was plotted over the drug concentration for dactinomycin (FIG. 12A), the DNA intercalators daunorubicin (DM) (FIG. 12B) and rebeccamycin (RM) (FIG. 12C), as well as the transcription inhibitors ICRF-193 (FIG. 12D), DRB (FIG. 12E) and α-amanitin (FIG. 12F). The size of symbols indicates the respective cell viability in the sample (size range adjusted to 5-95%).
For this purpose, each of the compounds was titrated over a relevant range of concentrations on two chronically actively infected T cell lines (JNLG#35 and JNLG#44). These clonal cell lines are infected with a GFP-reporter virus. Forty eight hours after addition of the compounds, the effect of each compound on HIV-1 transcription was determined by flow cytometric analysis quantifying GFP mean channel fluorescence intensity (MCF).

[2] = tested on: latently HIV-1 infected EF7 cells; test: Priming of latent HIV-1 infection in EF7 T cells (converse sense integration); conditions: 4 ng/ml, 18 hours pretreatment
Protocol: FIGS. 13A-B show the effect of dactinomycin on latent infection as a function of the orientation of integration relative to the direction of host-gene transcription. HIV-1 can integrate in the same transcriptional orientation as the host-gene or in the converse sense. Two latently HIV-1 infected T cell lines, which were determined to have HIV-1 integrated in the same sense orientation (CA5 cells) (FIG. 13A) and in the converse sense orientation (EF7 cells) (FIG. 13B) were used. For either cell line, the host-gene name, the position of integration and the chromosome number is given. For either T cell line, reactivation levels achieved by TNF-α treatment alone or by TNF-α stimulation following pretreatment with 4 ng/ml dactinomycin for 18 hours are shown. Reactivation levels were determined using flow cytometric analysis for GFP expression. The gray dotted line represents maximum achievable reactivation levels using PMA.
The sense of orientation of the integrated latent virus, relative to the transcriptional direction of the host-gene, was investigated to determine whether the orientation would influence the ability of dactinomycin to prime latent infection for reactivation. […]

P-TEFb/HEXIM-1 complex = test: Glycerol gradient sedimentation analysis of P-TEFb/HEXIM-1 complex in J89GFP cells (Western blot)
Protocol: J89GFP cells were left untreated, treated with a high concentration of dactinomycin for 1 hour or with the physiological optimal concentration (0.004 μg/ml or 0.01 μg/ml) for 18 hours. Cell lysates were separated on a glycerol gradient (10-45%). Each gradient fraction was separated on a 10% SDS-PAGE gel and transferred by Western blot. […] Band densities were determined using ImageJ and are presented as relative band density. […] Band densities were determined using ImageJ and are presented as relative band density.
Ten million J89GFP or CA5 T cells were left untreated or treated with 0.004 μg/mL, 0.01 μg/ml or 1 μg/mL dactinomycin for 18 hours or 1 hour, respectively. Cells were washed twice with cold PBS, then lysed for 30 minutes on ice in lysis buffer (0.5% TritonX100, 20 mM HEPES (pH7.9), 150 mM NaCl, 20 mM KCl, 2 mM MgCl2, 1 mM DTT, 0.2 mM EDTA, and protease inhibitor cocktail (P8340; SIGMA)), followed by centrifugation at 14,000 rpm for 10 minutes. The same amount of protein lysate was fractionated on 5 ml of a 10-45% glycerol gradient in lysis buffer in a SW-Ti55 rotor (Beckman Coulter; Miami, Fla.) for 16 hours at 45,000 rpm. Fractions were resolved on 10% SDS-PAGE and transferred to polyvinylidene fluoride membrane. The antibodies used for Western blotting were rabbit anti-Cdk9 (sc-484; Santa Cruz Biotechnology; Santa Cruz, Calif.) and rabbit anti-HEXIM1 (ab25388; Abcam; Cambridge, Mass.), respectively.
To test the idea that dactinomycin primed latent HIV-1 infection for reactivation by releasing P-TEFb (a complex of CDK9 and Cyclin T1) from its complex with HEXIM-1, the latently HIV-1 infected J89GFP or CA5 T cells were treated with 1.0 μg/ml dactinomycin for 1 hour or with the physiological optimal concentration of 0.004 μg/ml for 18 hours. Cell lysates were then separated on a glycerol gradient (10-45%) to reveal possible changes in the composition of the P-TEFb/HEXIM-1 complex. […] Each gradient fraction was separated on a SDS-PAGE gel and subjected to Western blotting. […] Similar results were obtained using anti-HEXIM-1 antibody. […] The minimal dactinomycin concentration to induce a shift towards the small complex was 0.01 μg/ml of dactinomycin. […] Similar results were obtained using the latently infected CA5 T cells.

Jurkat T cells = test: Protection of Jurkat T cells from poly (I:C) induced apoptosis (viability); conditions: compared with Salmonella typhimurium flagellin
Protocol: High concentrations of poly (I:C) trigger apoptosis in Jurkat cells and reduce cell viability. Viability of control cells (C) was compared to the viability of cell cultures treated with poly (I:C) (10 μg/ml) and increasing amounts of either flagellin or HRF.

| Molecule | effect on active HIV-1 infection / transcription (GFP MCF) [1] | priming effect for reactivation by TNF-α [2] | shift of CDK9 from large to small complex (P-TEFb/HEXIM-1 complex; 0.004 μg/ml for 18 hours) | shift of HEXIM-1 towards the small complex (P-TEFb/HEXIM-1 complex; 0.004 μg/ml for 18 hours) | release of P-TEFb from its complex with HEXIM-1 (anti-CDK9) (P-TEFb/HEXIM-1 complex; 1 μg/ml for 1 hour, J89GFP) | minimal concentration to induce a shift of HEXIM-1 towards the small complex (P-TEFb/HEXIM-1 complex; 18 hours) | protection from induced apoptosis (Jurkat T cells) |
| --- | --- | --- | --- | --- | --- | --- | --- |
| Cc1c2oc3c(C)ccc(C(=O)N[C@@H]4C(=O)N[C@H](C(C)C)C(=O)N5CCC[C@H]5C(=O)N(C)CC(=O)N(C)[C@@H](C(C)C)C(=O)O[C@@H]4C)c3nc-2c(C(=O)N[C@@H]2C(=O)N[C@H](C(C)C)C(=O)N3CCC[C@H]3C(=O)N(C)CC(=O)N(C)[C@@H](C(C)C)C(=O)O[C@@H]2C)c(N)c1=O [dactinomycin] (I: T[dV]P[Sar][NMeV] / II: T[dV]P[Sar][NMeV]; ester I:1-I:C, II:1-II:C; linker I:N-II:N via Actinocin(9to1)) | did not boost active infection, but rather inhibited active infection | exerted its priming effect in each integration scenario | shift of CDK9 presence from the large complex to the small complex was also detected | no shift towards the small complex was observed | quantitatively released P-TEFb | 0.01 µg/mL |  |
| B1 |  |  |  |  |  |  | greater efficacy |
